The source of these data is patent publication US5464818A (priority 1993, dated 1995).

Where two headings read alike, the source gives them in different places. *1 amine or outer side, *2 acyl side, *3 side chain or, on linkers, in order; H or OH if unused. Where a SMILES comes first, the peptide text is derived from it. [ ]: non-standard residue; d: D form. The star is where a group is joined. Sta = CC(C)C[C@H](N)[C@@H](O)CC(=O)O; AMC = Cc1cc(=O)oc2cc(N*)ccc12; Suc = O=C(CCC(=O)[*:2])[*:1]; Isovaleryl = CC(C)CC(=O)*

The test system of test [1] is Clostridium perfringens FERM BP-4584 (7544S) cell growth-stimulating protein having proteinase activity (MW about 420,000). The format is biochemical.
For test [2] the test system is unchanged. The format is biochemical. The source holds these as a separate data set.
Where [3] appears, read: inhibitor conc. 0.01 mM, substrate Suc-Ala-Ala-Pro-Phe-MCA.
Where [4] appears, read: inhibitor conc. 1.0 mM, substrate Suc-Ala-Ala-Pro-Phe-MCA.

For `CC(C)C[C@H](NC(=O)N[C@H](C(=O)N[C@@H](CCC(N)=O)C(=O)N[C@@H](C)C=O)[C@@H]1CCNC(=N)N1)C(=O)O` [Elastatinal], the Residual activity in test [1] (setting [3]) was determined as 98%.

With `O=C(O)CN(CCN(CC(=O)O)CC(=O)O)CC(=O)O` [Ethylenediamine tetraacetic acid], in test [1] (setting [4]), the Residual activity stood at 34%.

In the case of `O=C(O)CI` [Iodoacetic acid], in test [1] (inhibitor conc. 0.1 mM, substrate Suc-Ala-Ala-Pro-Phe-MCA), the Residual activity came to 100%. For `CC(C)CC(=O)N[C@H](C(=O)N[C@H](C(=O)N[C@@H](CC(C)C)[C@@H](O)CC(=O)N[C@@H](C)C(=O)N[C@@H](CC(C)C)[C@@H](O)CC(=O)O)C(C)C)C(C)C` [Pepstatin A] (Isovaleryl-VV[Sta]A[Sta]-OH), the Residual activity in test [1] (setting [3]) is recorded as 103%. The term Km denotes the substrate concentration at which the rate is half of its maximum. In the case of `Cc1cc(=O)oc2cc(NC(=O)[C@H](Cc3ccccc3)NC(=O)[C@@H]3CCCN3C(=O)[C@H](C)NC(=O)[C@H](C)NC(=O)CCC(=O)O)ccc12` [Suc--Ala--Ala--Pro--Phe--MCA, succinyl-alanyl-alanyl-prolyl-phenylalanine-4-methyl-coumaryl-7-amide] (Suc-AAPF-{AMC}), in test [2], the Km was found to be 4.2 mM. The Vmax in test [2] (substrate Suc-Ala-Ala-Pro-Phe-MCA, optimum pH 6.2-7.0) worked out at 230 μ mol/min/mg. In the case of `c1cnc2c(c1)ccc1cccnc12` [o-Phenanthroline], in test [1] (setting [4]), the Residual activity came out at 85%.

Consider Chymostatin, for which the Residual activity in test [1] (setting [3]) is 62%. Take Toluene sulfonylfluoride: in test [1], the Residual activity worked out at 1%.
